Holding throughout (type): in vitro ADME
Series [1] is described as follows: Liver microsome metabolic stability, mouse. The following applies: mouse liver microsomes, 45 min incubation. The procedure:
(§1) Purpose: This experiment investigates the metabolic stability of the compound in liver microsomes of different species such as humans, mice and rats, and the residual content of the test compound after incubation with liver microsomes of different species such as humans, mice and rats.
(§2) Preparation of 500 μM solution of target compound and positive control: 5 μL of each 10 mM stock solution was taken, added to 95 μL acetonitrile, and mixed for 30 s;
(§3) Preparation of 6 mM NADPH solution: 100 mM Stock aliquot liquid was diluted with Mg-Mg —K-Buffer.
(§4) 2.1.1 Liver microsome solution: 18.75 μL of 20 mg/mL HLM, RLM, MLM, DLM, MOLM (final concentration: 0.5 mg/ml) were taken and placed them in each well of a 96-well plate;
(§5) 2.1.2 1.5 μL of 500 μM solution of each compound was added respectively;
(§6) 2.1.3 479.8 μL of phosphate buffer was taken, then added to each compound well, and mixed at 1000 rpm in an oscillating mixer for 10 s.
(§7) 30 μL of the above samples were taken and aliquoted to a new 96-well plates respectively (including NADPH group, n=2, and no NADPH group at 0 and 45 min, n=1), marked as 0, 5, 15, 30 and 45 min; […]
(§8) The slope was calculated based on the LN value of the compound concentration percentage and time as the coordinate axis, and the residual content of the compound after incubation with liver microsomes was calculated based on the slope and formula. […]
A general note: Microsomes from liver hold many membrane-bound enzymes, among them those of drug oxidation.

For the next series, the target named is T1, CYP1A2 (Homo sapiens, UniProt P05177).
T1 construct: 0.05 mg/mL liver microsome (BioIVT, IHG) phosphate buffer solution; tissue BioIVT IHG; host or cells: human liver microsomes
T1 sequence (P05177 1-516): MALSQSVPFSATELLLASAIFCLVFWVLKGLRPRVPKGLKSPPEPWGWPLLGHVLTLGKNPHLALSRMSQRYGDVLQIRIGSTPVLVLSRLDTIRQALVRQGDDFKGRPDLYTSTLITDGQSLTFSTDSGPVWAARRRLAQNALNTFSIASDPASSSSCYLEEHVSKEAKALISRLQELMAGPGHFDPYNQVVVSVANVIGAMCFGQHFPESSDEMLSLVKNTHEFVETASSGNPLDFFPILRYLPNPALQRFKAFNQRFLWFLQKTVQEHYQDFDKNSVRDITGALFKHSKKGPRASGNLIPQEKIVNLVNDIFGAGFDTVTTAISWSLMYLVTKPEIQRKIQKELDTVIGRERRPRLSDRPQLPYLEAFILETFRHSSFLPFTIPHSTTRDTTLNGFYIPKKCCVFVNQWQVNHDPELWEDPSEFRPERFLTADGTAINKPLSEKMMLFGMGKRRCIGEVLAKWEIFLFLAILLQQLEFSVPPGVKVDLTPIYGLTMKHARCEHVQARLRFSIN
As to the kind of experiment: CYP450 enzyme inhibition in human liver microsomes, CYP1A2. The following applies: substrate Phenacetin, read-out: Inhibitory activity IC50 (μM) CYP1A2. On the procedure: (§9) This experiment incubates the compound, liver microsomes and different CYP subtype enzyme substrates in a 37° C. water bath to measure the amount of substrate metabolites produced and evaluate the inhibitory effect of the compound of the present disclosure on CYP enzymes based on the IC50 value.
(§10) i. The compound was diluted to 0, 0.02 mM, 0.06 mM, 0.2 mM, 0.6 mM, 2 mM and 6 mM concentrations with DMSO (Aladdin, catalog number: D103273-500 ml).
(§11) ii. The enzyme substrate solutions of each CYP subtype were prepared by phosphate buffer (sigma: V900050-500G).
(§12) iii. Sample incubation. […] After centrifugation at 4000 rpm and 4° C. for 40 min, the supernatant was diluted with pure water according to the response of the substrate metabolites and then detected by UPLC-MS/MS (Sciex, Q-Trap 4500). […]
(§13) The inhibitory effect of the compound on each P450 enzyme in human liver microsomes was calculated as the percentage of reduced metabolite formation compared with the non-inhibitory control (i.e., blank DMSO). The IC50 value for each P450 enzyme in human liver microsomes was calculated using the logarithm of the remaining activity and the inhibitor concentration using Graphpad Prism software. […]

The target of the next series is T2, CYP2C19 (Homo sapiens, UniProt P33261).
T2 construct: (CYP2C19 uses 0.2 mg/mL liver microsome); tissue BioIVT IHG; host or cells: human liver microsomes
T2 sequence (P33261 whole entry): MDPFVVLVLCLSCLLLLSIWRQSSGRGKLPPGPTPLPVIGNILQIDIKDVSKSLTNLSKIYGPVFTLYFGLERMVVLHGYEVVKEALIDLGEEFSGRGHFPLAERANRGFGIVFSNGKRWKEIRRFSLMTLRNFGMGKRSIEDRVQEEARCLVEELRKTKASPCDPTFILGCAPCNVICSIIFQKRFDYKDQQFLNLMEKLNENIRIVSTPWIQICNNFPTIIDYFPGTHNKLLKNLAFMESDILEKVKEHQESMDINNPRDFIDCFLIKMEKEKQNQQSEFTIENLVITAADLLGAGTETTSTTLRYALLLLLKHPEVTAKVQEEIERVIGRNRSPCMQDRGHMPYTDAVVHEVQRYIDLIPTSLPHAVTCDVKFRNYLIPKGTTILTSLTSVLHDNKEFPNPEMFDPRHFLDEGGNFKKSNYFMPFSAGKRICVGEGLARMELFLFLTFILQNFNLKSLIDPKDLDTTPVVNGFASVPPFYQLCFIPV
As to the kind of experiment: CYP450 enzyme inhibition in human liver microsomes, CYP2C19. Particulars: substrate Mephenytoin, read-out: Inhibitory activity IC50 (μM) CYP2C19. On the procedure: as §9, §10, §11, §12, §13

Series [2] can be described thus: Liver microsome metabolic stability, human. The following applies: human liver microsomes, 45 min incubation. On the procedure:
as §1, §2, §3, §4, §5, §6, §7, §8

The IC50 is the concentration at which inhibition is half-maximal.

Each structure is given as a SMILES string. A value given as a limit tells only on which side of the number the result lay.

In the case of `CC(=O)N1CCOC[C@H]1CNc1nc2nc(-c3c(C)cc(C(F)(F)F)cc3O)ccc2o1` [Compound 111], the “LMS (m)(% rem, 45 min)” value in series [1] came to 91.34 % rem. Moreover, the concentration for half-maximal inhibition (IC50) at CYP1A2 and on CYP2C19 was over 30 µM in each case. Further, the “LMS (h)(% rem, 45 min)” value in series [2] was 93.24 % rem.

For the origin of these results see patent US20260234150A1, “COMPOUND FOR INHIBITING NLRP3, PREPARATION METHOD, AND USE” (DOVETREE MEDICINES UNUS, INC., priority 2023, published 2026).
